Data from PubChem BioAssay (NCI).
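Five compound concentrations were applied to cells in 96-well plates for 48 hours; endpoints were derived by simple linear interpolation of the resulting dose-response curve. GI50 marks 50% less growth. TGI denotes the concentration required for complete inhibition of growth.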

Assays:
Assay in all cases: NCI anticancer screen, dose series, 48 h
786-0 renal = test system: 786-0 renal
CAKI-1 renal = test system: CAKI-1 renal
COLO 205 colon = test system: COLO 205 colon
LOX IMVI melanoma = test system: LOX IMVI melanoma
MOLT-4 leukemia = test system: MOLT-4 leukemia
SF-268 CNS = test system: SF-268 CNS
SN12C renal = test system: SN12C renal
SW-620 colon = test system: SW-620 colon
U251 CNS = test system: U251 CNS
SR leukemia = test system: SR leukemia

NCC(NC(=O)OCc1ccccc1)C(=O)O (stereo unspecified)
TGI (786-0 renal): > 50 µM
TGI (CAKI-1 renal): > 50 µM
TGI (COLO 205 colon): > 50 µM
TGI (LOX IMVI melanoma): > 50 µM
TGI (MOLT-4 leukemia): > 50 µM
TGI (SF-268 CNS): > 50 µM
TGI (SN12C renal): > 50 µM
TGI (SW-620 colon): > 50 µM
TGI (U251 CNS): > 50 µM

CNC(C)C(=O)N[C@H](C(=O)N1CCC[C@@H]1CN(CCc1ccccc1)C(=O)C(F)(F)F)[C@H](C)OCC#CC#CCO[C@H](C)[C@H](NC(=O)[C@H](C)NC)C(=O)N1CCC[C@H]1CN(CCc1ccccc1)C(=O)C(F)(F)F (stereo partly specified)
GI50 (786-0 renal): 1.65 µM
TGI (786-0 renal): 3.25 µM
GI50 (CAKI-1 renal): 2.39 µM
TGI (CAKI-1 renal): 5.51 µM
GI50 (COLO 205 colon): 1.42 µM
TGI (COLO 205 colon): 2.99 µM
GI50 (MOLT-4 leukemia): 1.75 µM
TGI (MOLT-4 leukemia): 4.1 µM
GI50 (SF-268 CNS): 1.94 µM
TGI (SF-268 CNS): 3.57 µM
GI50 (SN12C renal): 1.78 µM
TGI (SN12C renal): 3.32 µM
GI50 (SW-620 colon): 1.63 µM
TGI (SW-620 colon): 3.16 µM
GI50 (U251 CNS): 1.1 µM
TGI (U251 CNS): 2.48 µM

CC(=O)OC1C(CCl)OC(N=[N+]=[N-])C(OC(C)=O)C1OC(C)=O (stereo unspecified)
TGI (786-0 renal): > 100 µM
TGI (CAKI-1 renal): > 100 µM
TGI (COLO 205 colon): > 100 µM
TGI (MOLT-4 leukemia): > 100 µM
TGI (SF-268 CNS): > 100 µM
TGI (SN12C renal): > 100 µM
TGI (SW-620 colon): > 100 µM
TGI (U251 CNS): > 100 µM

N#CCC(=O)N/N=C1\C(=O)N(c2ccc(Cl)cc2)C(=O)C(=O)C1c1nc2ccccc2o1 (stereo unspecified)
TGI (786-0 renal): > 100 µM
TGI (CAKI-1 renal): > 100 µM
TGI (COLO 205 colon): > 100 µM
TGI (MOLT-4 leukemia): > 100 µM
TGI (SF-268 CNS): > 100 µM
TGI (SN12C renal): > 100 µM
TGI (SR leukemia): > 100 µM
TGI (SW-620 colon): > 100 µM
TGI (U251 CNS): > 100 µM

Clc1ccc(OC2CCO2)cc1Cl (stereo unspecified)
TGI (786-0 renal): > 100 µM
TGI (CAKI-1 renal): > 100 µM
TGI (COLO 205 colon): > 100 µM
TGI (MOLT-4 leukemia): > 100 µM
TGI (SF-268 CNS): > 100 µM
TGI (SN12C renal): > 100 µM
TGI (SW-620 colon): 33.6 µM
TGI (U251 CNS): > 100 µM

COc1cc(C2CC(c3cc(C)ccc3C)=NN2c2ccc(S(=O)(=O)NC(=O)NCc3ccccc3)cc2)cc(OC)c1OC (stereo unspecified)
GI50 (786-0 renal): 3.79 µM
TGI (786-0 renal): 23.5 µM
GI50 (CAKI-1 renal): 3.17 µM
TGI (CAKI-1 renal): 19.9 µM
GI50 (LOX IMVI melanoma): 3.79 µM
TGI (LOX IMVI melanoma): > 100 µM
GI50 (MOLT-4 leukemia): 3.24 µM
TGI (MOLT-4 leukemia): 25.2 µM
GI50 (SF-268 CNS): 4.9 µM
TGI (SF-268 CNS): 34.8 µM
GI50 (SN12C renal): 3.15 µM
TGI (SN12C renal): 18.1 µM
GI50 (SW-620 colon): 3.62 µM
TGI (SW-620 colon): > 100 µM
GI50 (U251 CNS): 3.31 µM
TGI (U251 CNS): 17.3 µM

O=C(O)C#CCO
TGI (786-0 renal): > 100 µM
TGI (CAKI-1 renal): > 100 µM
TGI (COLO 205 colon): > 100 µM
TGI (LOX IMVI melanoma): > 100 µM
TGI (MOLT-4 leukemia): > 100 µM
TGI (SF-268 CNS): > 100 µM
TGI (SN12C renal): > 100 µM
TGI (SW-620 colon): > 100 µM
TGI (U251 CNS): > 100 µM

O=c1c2ccccc2c(=O)c2c1cc(Cl)c1[nH]c3c([nH]c12)c(Cl)cc1c(=O)c2ccccc2c(=O)c13
TGI (786-0 renal): > 100 µM
TGI (CAKI-1 renal): > 100 µM
TGI (COLO 205 colon): > 100 µM
TGI (MOLT-4 leukemia): > 100 µM
TGI (SF-268 CNS): > 100 µM
TGI (SN12C renal): > 100 µM
TGI (SW-620 colon): > 100 µM
TGI (U251 CNS): > 100 µM

COc1cccc(C2NC(=S)NC(C)=C2C(=O)Nc2ccc(F)c(Cl)c2)c1 (stereo unspecified)
GI50 (786-0 renal): > 50 µM
TGI (786-0 renal): > 50 µM
GI50 (CAKI-1 renal): 48.9 µM
TGI (CAKI-1 renal): > 50 µM
GI50 (COLO 205 colon): 27.2 µM
TGI (COLO 205 colon): > 50 µM
GI50 (LOX IMVI melanoma): 17.6 µM
TGI (LOX IMVI melanoma): > 50 µM
GI50 (SF-268 CNS): 28.7 µM
TGI (SF-268 CNS): > 50 µM
GI50 (SN12C renal): 26.1 µM
TGI (SN12C renal): > 50 µM
GI50 (SR leukemia): 15.8 µM
TGI (SR leukemia): 40.2 µM
GI50 (SW-620 colon): > 50 µM
TGI (SW-620 colon): > 50 µM
GI50 (U251 CNS): 23.9 µM
TGI (U251 CNS): > 50 µM

O=C(CCCc1ccccn1)c1ccccc1
TGI (786-0 renal): > 100 µM
TGI (CAKI-1 renal): > 100 µM
TGI (COLO 205 colon): > 100 µM
TGI (LOX IMVI melanoma): > 100 µM
TGI (MOLT-4 leukemia): > 100 µM
TGI (SF-268 CNS): > 100 µM
TGI (SN12C renal): > 100 µM
TGI (SW-620 colon): > 100 µM
TGI (U251 CNS): > 100 µM

Cc1cc(C(=O)N2CCN(Cc3ccccc3)CC2)c(C)o1
TGI (786-0 renal): > 100 µM
TGI (CAKI-1 renal): > 100 µM
TGI (LOX IMVI melanoma): > 100 µM
TGI (MOLT-4 leukemia): > 100 µM
TGI (SF-268 CNS): > 100 µM
TGI (SN12C renal): > 100 µM
TGI (SR leukemia): > 100 µM
TGI (SW-620 colon): > 100 µM
TGI (U251 CNS): > 100 µM

COC(=O)C1CCC(Nc2cccc(C(F)(F)F)c2)=N1 (stereo unspecified)
TGI (786-0 renal): > 100 µM
TGI (CAKI-1 renal): > 100 µM
TGI (COLO 205 colon): > 100 µM
TGI (LOX IMVI melanoma): > 100 µM
TGI (MOLT-4 leukemia): > 100 µM
TGI (SF-268 CNS): > 100 µM
TGI (SN12C renal): > 100 µM
TGI (SW-620 colon): > 100 µM
TGI (U251 CNS): > 100 µM

O=C(O)C1CCCCN1C(=O)c1ccccc1 (stereo unspecified)
TGI (786-0 renal): > 100 µM
TGI (COLO 205 colon): > 100 µM
TGI (LOX IMVI melanoma): > 100 µM
TGI (MOLT-4 leukemia): > 100 µM
TGI (SF-268 CNS): > 100 µM
TGI (SN12C renal): > 100 µM
TGI (SR leukemia): > 100 µM
TGI (SW-620 colon): > 100 µM
TGI (U251 CNS): > 100 µM

O=C(c1cccs1)c1c(C(F)(F)F)n([O-])c2ccc(F)cc2[n+]1=O
GI50 (786-0 renal): 1.32 µM
TGI (786-0 renal): 2.74 µM
GI50 (CAKI-1 renal): 1.62 µM
TGI (CAKI-1 renal): 3.14 µM
GI50 (COLO 205 colon): 0.456 µM
TGI (COLO 205 colon): 1.62 µM
GI50 (LOX IMVI melanoma): 0.971 µM
TGI (LOX IMVI melanoma): 2.67 µM
GI50 (MOLT-4 leukemia): 0.3 µM
TGI (MOLT-4 leukemia): 1.02 µM
GI50 (SN12C renal): 1.58 µM
TGI (SN12C renal): 4.33 µM
GI50 (SR leukemia): 0.148 µM
TGI (SR leukemia): 0.558 µM
GI50 (SW-620 colon): 0.523 µM
TGI (SW-620 colon): 2.32 µM
GI50 (U251 CNS): 1.31 µM
TGI (U251 CNS): 2.6 µM

CCN(CC)CCNC(=O)c1cccc2cc3ccccc3nc12
TGI (786-0 renal): 32 µM
TGI (CAKI-1 renal): > 100 µM
TGI (COLO 205 colon): 20.2 µM
TGI (LOX IMVI melanoma): 19.2 µM
TGI (MOLT-4 leukemia): 7.95 µM
TGI (SF-268 CNS): 28.2 µM
TGI (SN12C renal): 51.4 µM
TGI (SW-620 colon): > 100 µM
TGI (U251 CNS): 81.5 µM

C=C(C)[C@@H]1CCC2=C[C@@H](OC2=O)[C@@H](C(=C)C)C(=O)/C=C(/C)C(=O)C1
GI50 (786-0 renal): 35.5 µM
TGI (786-0 renal): > 100 µM
GI50 (CAKI-1 renal): 25.4 µM
TGI (CAKI-1 renal): 60.9 µM
GI50 (COLO 205 colon): 26.3 µM
TGI (COLO 205 colon): 56.8 µM
GI50 (LOX IMVI melanoma): > 100 µM
TGI (LOX IMVI melanoma): > 100 µM
GI50 (MOLT-4 leukemia): 14 µM
TGI (MOLT-4 leukemia): 47 µM
GI50 (SF-268 CNS): 30 µM
TGI (SF-268 CNS): > 100 µM
GI50 (SN12C renal): 28.6 µM
TGI (SN12C renal): 77.3 µM
GI50 (SW-620 colon): 24.7 µM
TGI (SW-620 colon): 68.4 µM
GI50 (U251 CNS): 33.4 µM
TGI (U251 CNS): > 100 µM

CCN(CC)C(=S)SC1CCOP(=O)(N(CCCl)CCCl)N1C (stereo unspecified)
TGI (786-0 renal): > 80.1 µM
TGI (CAKI-1 renal): > 86.8 µM
TGI (MOLT-4 leukemia): 49.2 µM
TGI (SF-268 CNS): 98.6 µM
TGI (SN12C renal): 46 µM
TGI (SR leukemia): 50 µM
TGI (SW-620 colon): > 34.9 µM
TGI (U251 CNS): > 52.5 µM

CC[O-].Cc1ccc2cccc([O-])c2n1.Cc1ccc2cccc([O-])c2n1.Cc1ccc2cccc([O-])c2n1.[Ti+4]
GI50 (786-0 renal): 28.9 µM
TGI (786-0 renal): > 57.9 µM
GI50 (CAKI-1 renal): > 86.6 µM
TGI (CAKI-1 renal): > 100 µM
GI50 (COLO 205 colon): 19.5 µM
TGI (COLO 205 colon): 39.8 µM
GI50 (LOX IMVI melanoma): 18.2 µM
TGI (LOX IMVI melanoma): 47.9 µM
GI50 (MOLT-4 leukemia): 6.07 µM
TGI (MOLT-4 leukemia): 35.8 µM
GI50 (SF-268 CNS): > 83.5 µM
TGI (SF-268 CNS): > 100 µM
GI50 (SN12C renal): 65.3 µM
TGI (SN12C renal): > 100 µM
GI50 (SW-620 colon): 29.6 µM
TGI (SW-620 colon): > 61.1 µM
GI50 (U251 CNS): 18.3 µM
TGI (U251 CNS): 50.4 µM

O=C(O)CCC1(Br)CCCCC(Br)C1=O (stereo unspecified)
TGI (786-0 renal): > 100 µM
TGI (CAKI-1 renal): > 100 µM
TGI (COLO 205 colon): > 100 µM
TGI (MOLT-4 leukemia): > 100 µM
TGI (SF-268 CNS): > 100 µM
TGI (SN12C renal): > 100 µM
TGI (SW-620 colon): > 100 µM
TGI (U251 CNS): > 100 µM
